Reference: ChEMBL document CHEMBL1201862, “PubChem BioAssay data set” (2004)
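The compound was tested at five concentrations on cells cultured in 96-well plates, with a 48-hour exposure period. At the GI50, growth is halved.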 Active and inactive are the calls of the source. No stated cut-off is given here; in the data, active = GI50 up to about 1.1 µM and inactive = higher.

Key:
Assay in all cases: growth of human tumour cells (NCI), 48 h
A498 = system: A498
BT-549 = system: BT-549
COLO 205 = system: COLO 205
EKVX = system: EKVX
HOP-92 = system: HOP-92
IGROV-1 = system: IGROV-1
K562 = system: K562
LOX IMVI = system: LOX IMVI
Malme-3M = system: Malme-3M
NCI/ADR-RES = system: NCI/ADR-RES
OVCAR-3 = system: OVCAR-3
OVCAR-5 = system: OVCAR-5
OVCAR-8 = system: OVCAR-8
PC-3 = system: PC-3
RPMI-8226 = system: RPMI-8226
SF-295 = system: SF-295
SK-MEL-28 = system: SK-MEL-28
SN12C = system: SN12C
SNB-19 = system: SNB-19
SR = system: SR

SMILES	GI50 (A498)	GI50 (BT-549)	GI50 (COLO 205)	GI50 (EKVX)	GI50 (HOP-92)	GI50 (IGROV-1)	GI50 (K562)	GI50 (LOX IMVI)	GI50 (Malme-3M)	GI50 (NCI/ADR-RES)	GI50 (OVCAR-3)	GI50 (OVCAR-5)	GI50 (OVCAR-8)	GI50 (PC-3)	GI50 (RPMI-8226)	GI50 (SF-295)	GI50 (SK-MEL-28)	GI50 (SN12C)	GI50 (SNB-19)	GI50 (SR)
O=C1c2ccccc2-c2c1c1ccccc1c(=O)n2CCO	35 µM (inactive)	18.5 µM (inactive)	4.9 µM (inactive)	10 µM (inactive)	29.5 µM (inactive)	20.5 µM (inactive)	> 36 µM (inactive)	5.28 µM (inactive)	26.5 µM (inactive)	14.6 µM (inactive)	74 µM (inactive)	> 100 µM (inactive)	9.38 µM (inactive)	21.5 µM (inactive)	> 26.9 µM (inactive)	11.8 µM (inactive)	> 76.6 µM (inactive)	10.8 µM (inactive)	6.1 µM (inactive)	2.24 µM (inactive)
Cc1ccc([N+](=O)[O-])cc1S(=O)(=O)Nc1ccc(C2=NN(C(=O)c3ccccc3)C(c3cccs3)C2)cc1 (stereo not given)	10.5 µM (inactive)	25.3 µM (inactive)	16.9 µM (inactive)	21.5 µM (inactive)	12.6 µM (inactive)	16.9 µM (inactive)	22.1 µM (inactive)	30.8 µM (inactive)	19.1 µM (inactive)	30.9 µM (inactive)	13 µM (inactive)	42.5 µM (inactive)	22.4 µM (inactive)	21.9 µM (inactive)	31.6 µM (inactive)	21 µM (inactive)	63.5 µM (inactive)	22.4 µM (inactive)	33 µM (inactive)	28.8 µM (inactive)
CN(C)CCC(C(=O)C(C)(C)C)c1ccccn1 (stereo not given)	> 100 µM (inactive)	> 100 µM (inactive)	> 100 µM (inactive)	> 100 µM (inactive)	> 100 µM (inactive)	> 100 µM (inactive)	> 100 µM (inactive)	> 100 µM (inactive)	> 100 µM (inactive)	> 100 µM (inactive)	< 0.01 µM (active)	> 100 µM (inactive)	> 100 µM (inactive)	> 100 µM (inactive)	> 100 µM (inactive)	> 100 µM (inactive)	> 100 µM (inactive)	> 100 µM (inactive)	> 100 µM (inactive)	> 100 µM (inactive)
CN(C)CCN(c1ccccn1)c1ccccn1	> 100 µM (inactive)	> 100 µM (inactive)	> 100 µM (inactive)	> 100 µM (inactive)	> 100 µM (inactive)	> 100 µM (inactive)	> 100 µM (inactive)	> 100 µM (inactive)	> 100 µM (inactive)	> 100 µM (inactive)	> 100 µM (inactive)	> 100 µM (inactive)	> 100 µM (inactive)	> 100 µM (inactive)	> 100 µM (inactive)	> 100 µM (inactive)	> 100 µM (inactive)	> 100 µM (inactive)	> 100 µM (inactive)	> 100 µM (inactive)
O=C1c2cc(I)ccc2N2CCN=C2N1Cc1ccccc1	0.723 µM (active)	49.9 µM (inactive)	> 100 µM (inactive)	22.1 µM (inactive)	17.7 µM (inactive)	> 100 µM (inactive)	> 100 µM (inactive)	> 100 µM (inactive)	> 100 µM (inactive)	70.8 µM (inactive)	> 100 µM (inactive)	> 100 µM (inactive)	55 µM (inactive)	> 100 µM (inactive)	92.7 µM (inactive)	73.1 µM (inactive)	> 100 µM (inactive)	> 100 µM (inactive)	63.8 µM (inactive)	84.5 µM (inactive)
